Results as given in ChEMBL document CHEMBL1137069, “Design, synthesis and anti-microbial activity of 1H-pyrazole carboxylates” (2004).
“And” between values parts separate entries of the source, which are not always exact repeats. Equal entries are not always repeated.

How the values were obtained:
Assay type in all cases: functional
[1] = test system: Enterococcus faecalis; experiment: Antibacterial activity against […] was determined at 0.5 mg/mL concentration
[2] = test system: Fusarium oxysporum; experiment: Antifungal activity against Fusarium oxysporum was measured as mycelial growth at 0.1 mg/mL concentration
[3] = test system: Thanatephorus cucumeris; experiment: Antifungal activity against Rhizoctonia solani was determined at 0.1 mg/mL concentration
[4] = test system: Thanatephorus cucumeris; experiment: Antifungal activity against Rhizoctonia solani was measured as mycelial growth at 0.1 mg/mL concentration
[5] = test system: Fusarium oxysporum; experiment: Antifungal activity against Fusarium oxysporum was determined at 0.5 mg/mL concentration
[6] = Antifungal activity against Bipolaris oryzae was measured as mycelial growth at 0.1 mg/mL concentration
[7] = test system: Staphylococcus aureus; experiment: Antibacterial activity against Staphylococcus aureus was measured as area of inhibition zone at 0.1 mg/mL concentration; conditions: for zone of inhibition at 100 µg/mL: Staphylococcus aureus
[8] = test system: Enterococcus faecalis; experiment: Antibacterial activity against […] was determined at 0.1 mg/mL concentration
[9] = test system: Alternaria alternata; experiment: Antifungal activity against Alternaria alternata was determined at 0.5 mg/mL concentration
[10] = test system: Enterococcus faecalis; experiment: Antibacterial activity against […] was measured as area of inhibition zone at 0.1 mg/mL concentration
[11] = Antifungal activity against Bipolaris oryzae was determined at 0.5 mg/mL concentration
[12] = test system: Staphylococcus aureus; experiment: Antibacterial activity against Staphylococcus aureus was determined at 0.5 mg/mL concentration
[13] = test system: Alternaria alternata; experiment: Antifungal activity against Alternaria alternata was measured as mycelial growth at 0.5 mg/mL concentration
[14] = Antifungal activity against Bipolaris oryzae was measured as mycelial growth at 0.5 mg/mL concentration
[15] = test system: Escherichia coli; experiment: Antibacterial activity against Escherichia coli was determined at 0.1 mg/mL concentration
[16] = test system: Alternaria alternata; experiment: Antifungal activity against Alternaria alternata was determined at 0.1 mg/mL concentration
[17] = test system: Escherichia coli; experiment: Antibacterial activity against Escherichia coli was determined at 0.5 mg/mL concentration
[18] = test system: Fusarium oxysporum; experiment: Antifungal activity against Fusarium oxysporum was measured as mycelial growth at 0.5 mg/mL concentration
[19] = test system: Pseudomonas aeruginosa; experiment: Antibacterial activity against Pseudomonas aeruginosa was determined at 0.1 mg/mL concentration
[20] = test system: Pseudomonas aeruginosa; experiment: Antibacterial activity against Pseudomonas aeruginosa was determined at 0.5 mg/mL concentration
[21] = test system: Fusarium oxysporum; experiment: Antifungal activity against Fusarium oxysporum was determined at 0.1 mg/mL concentration
[22] = test system: Curvularia lunata; experiment: Antifungal activity against Curvularia lunata was determined at 0.5 mg/mL concentration
[23] = test system: Thanatephorus cucumeris; experiment: Antifungal activity against Rhizoctonia solani was measured as mycelial growth at 0.5 mg/mL concentration
[24] = test system: Thanatephorus cucumeris; experiment: Antifungal activity against Rhizoctonia solani was determined at 0.5 mg/mL concentration
[25] = test system: Curvularia lunata; experiment: Antifungal activity against Curvularia lunata was determined at 0.1 mg/mL concentration
[26] = test system: Alternaria alternata; experiment: Antifungal activity against Alternaria alternata was measured as mycelial growth at 0.1 mg/mL concentration
[27] = test system: Pseudomonas aeruginosa; experiment: Antibacterial activity against Pseudomonas aeruginosa was measured as area of inhibition zone at 0.1 mg/mL concentration; conditions: for zone of inhibition at 100 µg/mL: Pseudomonas aeruginosa
[28] = test system: Curvularia lunata; experiment: Antifungal activity against Curvularia lunata was measured as mycelial growth at 0.1 mg/mL concentration
[29] = Antifungal activity against Bipolaris oryzae was determined at 0.1 mg/mL concentration
[30] = test system: Curvularia lunata; experiment: Antifungal activity against Curvularia lunata was measured as mycelial growth at 0.5 mg/mL concentration
[31] = test system: Staphylococcus aureus; experiment: Antibacterial activity against Staphylococcus aureus was determined at 0.1 mg/mL concentration

Compound | inhibition at 500 µg/mL [1] [%] | Mycelial growth [2] [cm] | inhibition at 100 µg/mL [3] [%] | Mycelial growth [4] [cm] | inhibition at 500 µg/mL [5] [%] | Mycelial growth [6] [cm] | Inhibition Zone [7] | inhibition at 100 µg/mL [8] [%] | inhibition at 500 µg/mL [9] [%] | zone of inhibition at 100 µg/mL [10] [mm] | inhibition at 500 µg/mL [11] [%] | inhibition at 500 µg/mL [12] [%] | Mycelial growth [13] [cm] | Mycelial growth [14] [cm] | inhibition at 100 µg/mL [15] [%] | inhibition at 100 µg/mL [16] [%] | inhibition at 500 µg/mL [17] [%] | Mycelial growth [18] [cm] | inhibition at 100 µg/mL [19] [%] | inhibition at 500 µg/mL [20] [%] | further results
CCOC(=O)c1cn(-c2ccc([N+](=O)[O-])cc2[N+](=O)[O-])nc1-c1ccc(Cl)cc1 | 54.4 | 6.3 | 0 | 9 | 55.6 | 6.6 | 3.3 cm and 1.6 cm | 0 | 53.3 | 49 | 56.7 | 36.7 | 4.2 | 3.9 | 0 | 40 | 52.2 | 4 | 0 | 0 | inhibition at 100 µg/mL [21]: 30%; inhibition at 500 µg/mL [22]: 46.7%; Mycelial growth [23]: 7.2 cm; inhibition at 500 µg/mL [24]: 20%; inhibition at 100 µg/mL [25]: 35.6%; Mycelial growth [26]: 5.4 cm; zone of inhibition at 100 µg/mL [27]: 0 mm; Mycelial growth [28]: 5.8 cm; inhibition at 100 µg/mL [29]: 26.7%; Mycelial growth [30]: 4.8 cm; inhibition at 100 µg/mL [31]: 17.8%
Cc1nn(-c2ccc([N+](=O)[O-])cc2[N+](=O)[O-])cc1C(=O)OC(C)(C)C | 53.3 | 7.8 | 0 | 9 | 36.7 | 5.5 | 7.3 cm | 21.1 | 43.3 | 48 | 52.2 | 93.3 | 5.1 | 4.3 | 16.7 | 31.1 | 52.2 | 5.7 | 0 | 0 | zone of inhibition at 100 µg/mL [7]: 84 mm; inhibition at 100 µg/mL [21]: 13.3%; inhibition at 500 µg/mL [22]: 40%; Mycelial growth [23]: 8.5 cm; inhibition at 500 µg/mL [24]: 5.6%; inhibition at 100 µg/mL [25]: 25.6%; Mycelial growth [26]: 6.2 cm; zone of inhibition at 100 µg/mL [27]: 0 mm; Mycelial growth [28]: 6.7 cm; inhibition at 100 µg/mL [29]: 38.9%; Mycelial growth [30]: 5.4 cm; inhibition at 100 µg/mL [31]: 81.1%
CCOC(=O)c1cn(-c2ccc([N+](=O)[O-])cc2[N+](=O)[O-])nc1-c1ccccc1F | 25.6 | 6 | 0 | 9 | 41.1 | 5.7 | 7.3 cm | 0 | 62.2 | 23 | 52.2 | 81.1 | 3.4 | 4.3 | 20 | 53.3 | 56.7 | 5.3 | 0 | 0 | zone of inhibition at 100 µg/mL [7]: 42 mm; inhibition at 100 µg/mL [21]: 33.3%; inhibition at 500 µg/mL [22]: 55.6%; Mycelial growth [23]: 8.2 cm; inhibition at 500 µg/mL [24]: 8.9%; inhibition at 100 µg/mL [25]: 44.4%; Mycelial growth [26]: 4.2 cm; zone of inhibition at 100 µg/mL [27]: 0 mm; Mycelial growth [28]: 5 cm; inhibition at 100 µg/mL [29]: 36.7%; Mycelial growth [30]: 4 cm; inhibition at 100 µg/mL [31]: 46.7%
CCOC(=O)c1cn(-c2ccc([N+](=O)[O-])cc2[N+](=O)[O-])nc1CCl | 0 | 6.8 | 0 | 9 | 48.9 | 5.9 | 8.3 cm | 0 | 46.7 | 0 | 48.9 | 92.2 | 4.8 | 4.6 | 17.8 | 33.3 | 51.1 | 4.6 | 0 | 0 | zone of inhibition at 100 µg/mL [7]: 69 mm; inhibition at 100 µg/mL [21]: 24.4%; inhibition at 500 µg/mL [22]: 43.3%; Mycelial growth [23]: 8.5 cm; inhibition at 500 µg/mL [24]: 5.6%; inhibition at 100 µg/mL [25]: 33.3%; Mycelial growth [26]: 6 cm; zone of inhibition at 100 µg/mL [27]: 0 mm; Mycelial growth [28]: 6 cm; inhibition at 100 µg/mL [29]: 34.4%; Mycelial growth [30]: 5.1 cm; inhibition at 100 µg/mL [31]: 76.6%
Cc1nn(-c2ccc([N+](=O)[O-])cc2[N+](=O)[O-])cc1C(=O)OCc1ccccc1 | 81.1 | 6.3 | 12.2 | 7.9 | 52.2 | 6 | 4.1 cm | 56.7 | 53.3 | 73 | 46.7 | 78.9 | 4.2 | 4.8 | 17.8 | 42.2 | 54.4 | 4.3 | 18.9 | 22.2 | zone of inhibition at 100 µg/mL [7]: 71 mm; inhibition at 100 µg/mL [21]: 30%; inhibition at 500 µg/mL [22]: 41.1%; Mycelial growth [23]: 6.5 cm; inhibition at 500 µg/mL [24]: 27.8%; inhibition at 100 µg/mL [25]: 28.9%; Mycelial growth [26]: 5.2 cm; Inhibition Zone [27]: 2 cm; zone of inhibition at 100 µg/mL [27]: 17 mm; Mycelial growth [28]: 6.4 cm; inhibition at 100 µg/mL [29]: 33.3%; Mycelial growth [30]: 5.3 cm; inhibition at 100 µg/mL [31]: 45.6%
